The values that follow come from US8541434B2, “Ethynyl-substituted pyridine and pyrimidine derivatives and their use in treating viral infections” (Merck Sharp & Dohme Corp., priority 2008, dated 2013).

A value given as a limit tells only on which side of the number the result lay.

The test system of this experiment is HCV replicon cells. Description: Cell-based HCV replicon assay (replicon RNA level by real time PCR, Taqman). To be noted: Hepatitis C virus, 72 h, harvested on day 3, EC90 = concentration necessary to achieve ΔCT=3.2 over the baseline, read-out: EC90 Range. On the procedure:
Assays Cell-Based HCV Replicon Assay
To measure cell-based anti-HCV activity of the compounds of the present invention, replicon cells were seeded at 5000 cells/well in 96-well collagen I-coated Nunc plates in the presence of the compound of the invention. […] The final concentration of DMSO was 0.5%, fetal bovine serum was 10%, in the assay media. Cells were harvested on day 3 by the addition of 1× cell lysis buffer (Ambion cat #8721). The replicon RNA level was measured using real time PCR (Taqman assay). The amplicon was located in 5B. […] GAPDH RNA was used as endogenous control and was amplified in the same reaction as NS5B (multiplex PCR) using primers and VIC-labeled probe recommended by the manufacturer (PE Applied Biosystem). The real-time RT-PCR reactions were run on ABI PRISM 7900HT Sequence Detection System using the following program: 48° C. for 30 min, 95° C. for 10 min, 40 cycles of 95° C. for 15 sec, 60° C. for 1 min. The ACT values (CT5B-CTGAPDH) were plotted against the concentration of test compound and fitted to the sigmoid dose-response model using GraphPad PRISM software. EC50 was defined as the concentration of inhibitor necessary to achieve ΔCT=1 over the projected baseline; EC90 the concentration necessary to achieve ΔCT=3.2 over the baseline. Alternatively, to quantitate the absolute amount of replicon RNA, a standard curve was established by including serially diluted T7 transcripts of replicon RNA in the Taqman assay. All Taqman reagents were from PE Applied Biosystems. Such an assay procedure was described in detail in e.g. Malcolm et al., Antimicrobial Agents and Chemotherapy 50: 1013-1020 (2006).
Background: A replicon is a self-replicating genome or part of one, used to study replication in cells.
The EC90 is the concentration at which the effect reaches the 90% level. For `COc1ccc(C#Cc2c(C)nc(NCC(F)(F)F)nc2N[C@@H]2C[C@H](CO)[C@@H](O)[C@H]2O)cn1` [Compound 90], the 90% effect concentration (EC90) is 500 to 5000 nM. On to `CCOc1ccc(C#Cc2c(Cl)nc(NCC(F)(F)F)nc2N[C@@H]2C[C@H](CO)[C@@H](O)[C@H]2O)cn1` [Compound 74], for which the EC90 is no more than 500 nM.

Consider `Cc1ccc(C#Cc2c(Cl)nc(N)nc2N[C@@H]2C[C@H](CO)[C@@H](O)[C@H]2O)cn1` [Compound 5], for which the EC90 fell in the range of 500 to 5000 nM. The same measure for `CC(C)Oc1ncccc1C#Cc1c(Cl)nc(N)nc1N[C@@H]1C[C@H](CO)[C@@H](O)[C@H]1O` [Compound 14]: 500 to 5000 nM; for `COc1ccc(C#Cc2c(Cl)nc(N)nc2N[C@@H]2C[C@H](CO)[C@@H](O)[C@H]2O)c(OC)n1` [Compound 22]: no more than 500 nM. For `Cc1nc(-c2ccc(C#Cc3c(Cl)nc(N)nc3N[C@@H]3C[C@H](CO)[C@@H](O)[C@H]3O)s2)cs1` [Compound 39], the concentration for an effect of 90% (EC90) lay in the range of 500 to 5000 nM. The result for `CCOc1ccc(C#Cc2c(C)nc(NCCOC)nc2N[C@@H]2C[C@H](CO)[C@@H](O)[C@H]2O)cn1` [Compound 81] reads no more than 500 nM. The result for `COc1ccc(C#Cc2c(C)nc(NCc3c(OC)cccc3OC)nc2N[C@@H]2C[C@H](CO)[C@@H](O)[C@H]2O)cn1` [Compound 93] reads no more than 500 nM; that for `COCCNc1nc(Cl)c(C#Cc2ccc(OC)nc2)c(N[C@@H]2C[C@H](CO)[C@@H](O)[C@H]2O)n1` [Compound 75], no more than 500 nM.

Turning to `COc1ccc(C#Cc2c(Cl)nc(NCC(F)(F)F)nc2N[C@@H]2C[C@H](CO)[C@@H](O)[C@H]2O)c(C)n1` [Compound 68], the EC90 is no more than 500 nM.

On to `Nc1nc(Cl)c(C#Cc2ncc[nH]2)c(N[C@@H]2C[C@H](CO)[C@@H](O)[C@H]2O)n1` [Compound 13], for which the EC90 fell in the range of 500 to 5000 nM. `Cc1nc(-c2ccccc2)c(C#Cc2c(Cl)nc(N)nc2N[C@@H]2C[C@H](CO)[C@@H](O)[C@H]2O)s1` [Compound 35]: the concentration for an effect of 90% (EC90) was no more than 500 nM. In the case of `CCNc1nc(C)c(C#Cc2ccc(OCC)nc2)c(N[C@@H]2C[C@H](CO)[C@@H](O)[C@H]2O)n1` [Compound 88], the EC90 is no more than 500 nM.

For the compound `CNc1nc(Cl)c(C#Cc2ccc(SC)nc2C)c(N[C@@H]2C[C@H](CO)[C@@H](O)[C@H]2O)n1` [Compound 66], the concentration for an effect of 90% (EC90) is no more than 500 nM. The same measure for `COCCNc1nc(C)c(C#Cc2ccc(OC)nc2)c(N[C@@H]2C[C@H](CO)[C@@H](O)[C@H]2O)n1` [Compound 77]: no more than 500 nM; for `CCOc1ccc(C#Cc2c(C)nc(NCC(C)(C)C)nc2N[C@@H]2C[C@H](CO)[C@@H](O)[C@H]2O)cn1` [Compound 85]: no more than 500 nM; for `CCOc1ccc(C#Cc2c(C)nc(NCC(F)(F)F)nc2N[C@@H]2C[C@H](CO)[C@@H](O)[C@H]2O)cn1` [Compound 86]: no more than 500 nM. The same measure for `COc1ccc(C#Cc2c(Cl)nc(NCC(F)(F)F)nc2N[C@@H]2C[C@H](CO)[C@@H](O)[C@H]2O)cn1` [Compound 76]: no more than 500 nM. Take `Cc1ccsc1C#Cc1c(Cl)nc(N)nc1N[C@@H]1C[C@H](CO)[C@@H](O)[C@H]1O` [Compound 7]: the EC90 lay within 500 to 5000 nM.

On to `Nc1nc(Cl)c(C#Cc2ccc(-c3ccccc3)cc2)c(N[C@@H]2C[C@H](CO)[C@@H](O)[C@H]2O)n1` [Compound 44], for which the EC90 fell in the range of 500 to 5000 nM. The result for `COCCNc1nc(C)c(C#Cc2ccc(OC)nc2OC)c(N[C@@H]2C[C@H](CO)[C@@H](O)[C@H]2O)n1` [Compound 94] reads no more than 500 nM; that for `CNC(=O)c1ncccc1C#Cc1c(Cl)nc(N)nc1N[C@@H]1C[C@H](CO)[C@@H](O)[C@H]1O` [Compound 57], 500 to 5000 nM. The result for `Cc1nc(-c2cccs2)ccc1C#Cc1c(Cl)nc(N)nc1N[C@@H]1C[C@H](CO)[C@@H](O)[C@H]1O` [Compound 18] reads no more than 500 nM; that for `COC(=O)c1nc(N)sc1C#Cc1c(Cl)nc(N)nc1N[C@@H]1C[C@H](CO)[C@@H](O)[C@H]1O` [Compound 32], no more than 500 nM. The result for `COc1ccc(C#Cc2c(C)nc(NCCSC)nc2N[C@@H]2C[C@H](CO)[C@@H](O)[C@H]2O)cn1` [Compound 84] reads no more than 500 nM. For the compound `CCNC(=O)c1ncccc1C#Cc1c(Cl)nc(N)nc1N[C@@H]1C[C@H](CO)[C@@H](O)[C@H]1O` [Compound 56], the 90% effect concentration (EC90) lay in the range of 500 to 5000 nM. With `CSc1ccc(C#Cc2c(Cl)nc(N)nc2N[C@@H]2C[C@H](CO)[C@@H](O)[C@H]2O)c(C)n1` [Compound 64], the EC90 is no more than 500 nM.

On to `Nc1nc(Cl)c(C#Cc2ccccc2Cl)c(N[C@@H]2C[C@H](CO)[C@@H](O)[C@H]2O)n1` [Compound 60], for which the EC90 is 500 to 5000 nM. The result for `Nc1nc(Cl)c(C#Cc2ccc(F)nc2)c(N[C@@H]2C[C@H](CO)[C@@H](O)[C@H]2O)n1` [Compound 8] reads 500 to 5000 nM.
